Measured values from patent US20240016784A1, “Y BOX BINDING PROTEIN 1 INHIBITORS” (Oregon Health & Science University, priority 2020, published 2024).

Experiments:
[1] = tested on: OC cell lines; test: Cell migration assay (Boyden chamber); type: cell-based; details: different OC cell lines, P<0.05
Method: (§1) To determine whether proliferation inhibition was the dominant factor driving the reduction in OC viability seen with AzP treatment, we used propidium iodide and annexin-FITC stains with flow cytometry to measure the distribution of cell cycle phases after treatment. […] Furthermore, in the Boyden chamber assay for cell migration, SU093 inhibited cell migration by 40-46% (1 μM, P<0.05) in different OC cell lines.
Cell migration assay: 1×10^5 cells were plated in 60 mm cell culture dishes (Corning-Falcon, #353002) and incubated for 24 h. […] Cells were trypsinized and collected in a conical tube for each plate. Pellets of cells were resuspended, and live cells were counted using a hemocytometer and trypan blue staining. 40,000 live cells were then plated in the upper chamber of 8-micron transwell (Corning-Falcon, #353097) with 0.2% FBS media. The lower chamber contained 10% FBS complete media. […] Each transwell was washed, swiped for non-migrated cells and fixed using 75% ethanol. Fixed transwells were stained with 0.5% crystal violet for 1 h. De-stained transwell membranes were cut and mounted on a slide using DPX mounting media. Migrated cells were counted under the microscope at 100× magnification.
FIG. 1A) Lead optimization of SU093 to obtain SU056. […] FIG. 1G) Effects of SU093 and SU056 on apoptotic cell death analyzed by Annexin-FITC staining. […]

[2] = Liver toxicity parameters (ALT, AST, ALKP) in ID8 study; type: in vivo, C57BL/6 mice; details: 20 mg/kg daily IP, 42 days
Method: (§2) These promising results led us to test SU093 and SU056 in vivo. C57BL/6 mice were implanted with 2×10^6 firefly luciferase (luc+)-expressing ID-8 syngeneic ovarian cancer cells subcutaneously. Once the tumors reached 100 mm^3 in size, we began daily intraperitoneal treatment with SU093 and SU056 at 20 mg/kg (vehicle control 30% PEG-300 in saline). Tumor growth was monitored via bioluminescence imaging (IVIS).
(§3) In vivo xenograft model and drug efficacy study: All animal experiments were reviewed and approved by the Animal Care and Use Committee of Stanford University, CA, USA. Luciferase tagged ID8 (2×10^6) or OVCAR8 (5×10^6) cells were implanted into the right flank of 6-7-week-old female C57BL/6 mice and NOD/SCID mice, respectively. Respective treatment began after tumors grew to 100-200 mm^3 diameters. The ID8 syngeneic mice model was treated with a vehicle (30% PEG-300 in saline), 20 mg/kg SU093, and 20 mg/kg SU056 intraperitoneally (IP) daily for 42 days. At the end of treatment, blood was collected from each mouse and analyzed for liver toxicity parameters, including Alanine Aminotransferase (ALT), Aspartate Aminotransferase (AST), and Alkaline Phosphatase (ALKP). […]

[3] = tested on: ovarian cancer cells; test: Apoptotic cell death assay (Annexin-FITC); type: cell-based; details: 24 h treatment; Annexin-FITC staining
Method: as §1
Apoptotic cell death assay: Cells were plated and treated as described in cell cycle analysis assay above. Treated cells were incubated for 24 h and both live and dead cells were collected. Cells were stained with Annexin V and PI using FITC Annexin V apoptosis detection kit (BD Pharmingen, San Jose, CA) by following the manufacturer's protocol. Guava® easyCyte™ Flow Cytometer was used to analyze the stained cells.
(§4) FIG. 1A) Lead optimization of SU093 to obtain SU056. FIG. 1B) IC50 values of SU093 and SU056 on various ovarian cancer cells. Clonogenic survival of OC cells treated with SU093 or SU056. […] FIG. 1C) Representative colony formation from respective wells. FIG. 1D) Number of colonies formed after SU093 and SU056 treatment. […] FIG. 1F) Cell cycle distribution of propidium iodide (PI)-stained OVCAR8, SKOV3, and ID8 cells. […] FIG. 1G) Effects of SU093 and SU056 on apoptotic cell death analyzed by Annexin-FITC staining. […] FIG. 1H) Cell migration assay.

[4] = tested on: SKOV-3; test: Clonogenic assay; type: cell-based, human; details: 0.5 & 1 μM
Method: (§5) We tested the relationship between AzPs dose and the viability of human ovarian cancer cell lines and the ID8 murine ovarian cancer cell line.
(§6) Clonogenic assay: 300 suspended OC cells were plated in each well of 12 well plates (Corning-Costar, #3598) and incubated for 24 h for attachment. The media was replaced after 24 h with media containing a respective concentration of the test compound and incubated for 5-8 days until visible colonies appeared in vehicle-treated wells. Cells were then washed and fixed with 2% paraformaldehyde, followed by washing and staining with 0.5% Crystal violet for 1 h. Cells were de-stained using DI water and allowed to dry. Colonies were counted under the microscope at 100× magnification.
as §4

[5] = tested on: OVCAR-8 and ID8 cells; test: Clonogenic assay; type: cell-based
Method: as §5, §6, §4

[6] = tested on: OVCAR8, SKOV3, and ID8 cells; test: Cell cycle analysis (propidium iodide, flow cytometry); type: cell-based; details: 12 h treatment; PI-stained OVCAR8, SKOV3, ID8
Method: as §1
Cell cycle analysis: 30,000 OC cells were plated in each well of 12 well plates and incubated for 24 h. […] Both live and dead cells were collected via trypsinization and cell pellets were fixed with 70% ethanol. Fixed cells were stained using propidium iodide (PI) cocktail (80 μg/mL RNase A and 50 μg/mL PI in saponin-EDTA solution) and incubated at 4° C. overnight. Each sample was analyzed using a Guava® easyCyte™ Flow Cytometer (Millipore, Burlington, MA). FlowJo software calculated the % cells in each cell cycle phase.
as §4

[7] = tested on: ID-8 tumor xenograft; test: ID8 syngeneic ovarian tumor model, tumor growth and lung metastasis; type: in vivo, C57BL/6 mice
Method: as §2
Due to prior observation of a significant reduction in the migratory ability of OC cells treated with the two drugs (FIG. 1H), we also measured the effect of drug treatment on ovarian cancer metastases. At the end of above experiment, lungs were fixed and metastatic foci were counted under the dissecting microscope followed by H&E staining.
In vivo xenograft model and drug efficacy study: All animal experiments were reviewed and approved by the Animal Care and Use Committee of Stanford University, CA, USA. Luciferase tagged ID8 (2×10^6) or OVCAR8 (5×10^6) cells were implanted into the right flank of 6-7-week-old female C57BL/6 mice and NOD/SCID mice, respectively. Respective treatment began after tumors grew to 100-200 mm^3 diameters. The ID8 syngeneic mice model was treated with a vehicle (30% PEG-300 in saline), 20 mg/kg SU093, and 20 mg/kg SU056 intraperitoneally (IP) daily for 42 days. At the end of treatment, blood was collected from each mouse and analyzed for liver toxicity parameters, including Alanine Aminotransferase (ALT), Aspartate Aminotransferase (AST), and Alkaline Phosphatase (ALKP). OVCAR8 xenograft mice model was treated with vehicle (30% PEG-300 in saline), 5 mg/kg paclitaxel (once a week), 10 mg/kg SU056 (daily), a combination of paclitaxel (5 mg/kg, once a week) and SU056 (10 mg/kg, daily) for 4 weeks. Mice from both studies were euthanized, the tumor and different organs were collected and fixed in neutral buffered formalin and further processed for immunohistochemical analysis.
FIGS. 2A-2F. SU093 and SU056 inhibit mice ovarian ID-8 tumor xenograft growth in C57BL/6 mice. Mice were subcutaneously injected with ID-8 cells mixed with Matrigel in 1:1 ratio and the drug treatment started when tumors reached 100 mm^3. […] FIG. 2B) Tumor volume/mouse as a function of time. […] FIG. 2C) Tumor weight/mouse at the end of the study. […] FIG. 2D) Liver toxicity parameters at the end of 42 days showing no significant difference between control, SU093, and SU056. FIGS. 2E-2F) Lung metastasis assay. FIG. 2E) H&E staining of the lung (red arrow indicates the metastasis from ID8 xenograft). Scale bar, 250 μm. FIG. 2F) No. of lung metastatic nodules.

[8] = tested on: OVCAR8 OC tumors; test: OVCAR8 xenograft combination study; type: in vivo, NOD-SCID mice; details: SU056 10 mg/kg daily, paclitaxel 5 mg/kg weekly, intraperitoneal, 28 days
Method: In a pharmacokinetics study in vivo, injection of 20 mg/kg SU056 led to a maximum serum concentration of 28.19 μg/mL with a T1/2 of ˜45 min. We then tested the synergism of paclitaxel and SU056 co-treatment in vivo in NOD-SCID mice implanted with OVCAR8 OC tumors as described above. Mice were given daily treatment of SU056 (10 mg/kg) and weekly treatment of paclitaxel (5 mg/kg) were administered intraperitoneally. […] This likely resulted from decreased paclitaxel efflux from OVCAR8 cells in the presence of SU056.
as §3

[9] = tested on: YB-1 and MDR1; test: Immunoblotting of YB-1 and MDR1 in OVCAR8 cells; type: cell-based, human; details: paclitaxel 0.5 nM, SU056 0.5 μM, 12 h
Method: Immunoblotting: Once 70% confluency of OC cells plated in 100 mm cell culture was obtained, dishes were treated with a respective concentration of SU056 for a respective time. At the end of treatment, cells were collected and lysed using M-PER™ lysis solution (Thermo Scientific, #78503), supplemented with Halt protease and phosphatase inhibitor cocktail (Thermo Scientific, #78440). An equal amount (40-60 μg) of proteins was resolved using 8%/10%/12% SDS-PAGE gel electrophoresis. Proteins were then transferred onto a PVDF membrane (Bio-Rad, #162-01277). Blocked membranes were incubated with respective primary antibody solution prepared in 5% nonfat milk TPBS at 4° C. overnight with gentle rocking. Primary antibody-probed membranes were washed and probed with respective HRP-conjugated secondary antibody. Proteins were detected using Immobilon® Crescendo Western HRP Substrate (Millipore, Germany) and visualized on an IVIS Lumina Imaging System (Perkin Elmer, Waltham, MA). […]

Row | SMILES | inhibition at 1 µM [1] [%] | impact on blood chemistry indicators (AST, ALT, alkaline phosphatase) [2] | apoptotic cell death [3] | colony formation, effect on SKOV-3 [4] | OC colony formation [5] | cell cycle distribution [6] | reduction in tumor weight ([7]; 20 mg/kg daily IP, at 42 days) [fold] | tumor progression vs vehicle control ([7]; 20 mg/kg daily intraperitoneal, bioluminescence imaging) | OC tumor growth [8] | expression of YB-1 and MDR1 (Western blot) [9]
1 | COc1ccc2c(c1)N(CCO)C1=C(C(=O)OC1)C2c1cccc(F)c1 (stereo not shown) [SU093, 9-(3-fluorophenyl)-4-(2-hydroxyethyl)-6-methoxy-4,9-dihydrofuro[3,4-b]quinolin-1(3H)-one, reference compound] | 40 to 46 | no significant impact | induce apoptotic cell death | moderately affect | decreased OC colony formation in a dose-dependent and significant manner | G1 phase arrest | 1.5 | significantly delay the tumor progression |  | 
2 | CC(=O)O[C@H]1C(=O)[C@@]2(C)[C@H]([C@H](OC(=O)c3ccccc3)[C@]3(O)C[C@H](OC(=O)[C@H](O)[C@@H](NC(=O)c4ccccc4)c4ccccc4)C(C)=C1C3(C)C)[C@]1(OC(C)=O)CO[C@@H]1C[C@@H]2O [paclitaxel, reference compound] |  |  |  |  |  |  |  |  | significant reduction in OC tumor growth | upregulate the expression of YB-1 and MDR1
